Source: ChEMBL document CHEMBL1201862, “PubChem BioAssay data set” (2004)
Counter-ions that a name gives are not always drawn. Calls of active or inactive are those of the source.

Tests used:
[1] = viability loss in HEK293T cells – cell-based, ATP luminescence, dry powder, set 3, cytotoxicity control, dose response (AID 743131); type: functional; conditions: HEK293
[2] = viability loss in HepG2 hepatoma cells – cell-based, ATP luminescence, dry powder, set 2, cytotoxicity control, dose response (AID 743129); type: functional
[3] = viability loss in Vero cells – cytotoxicity control for Vif-APOBEC3G degradation inhibitor project, dose response (AID 1117358); type: functional; conditions: Vero
[4] = A549 lung cell viability reduction – CellTiter-Glo luminescence, cherry-pick, cytotoxicity control, dose response (AID 743484); type: functional, cell-based
[5] = target: Oxysterols receptor LXR-beta (Homo sapiens, UniProt P55055); type: functional, cell-based;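 further: Cell-based luminescence dose-response assay of agonist activity at LXR, run as a confirmatory counterscreen to a daf-12 agonist screen; HEK293 cells with Gal4-LXR fusion and GAL4-driven luciferase reporter; agonist potency from rising luciferase signal of a Gal4-LXR reporter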
Chain of Oxysterols receptor LXR-beta (P55055 whole entry, the tested form may be a part): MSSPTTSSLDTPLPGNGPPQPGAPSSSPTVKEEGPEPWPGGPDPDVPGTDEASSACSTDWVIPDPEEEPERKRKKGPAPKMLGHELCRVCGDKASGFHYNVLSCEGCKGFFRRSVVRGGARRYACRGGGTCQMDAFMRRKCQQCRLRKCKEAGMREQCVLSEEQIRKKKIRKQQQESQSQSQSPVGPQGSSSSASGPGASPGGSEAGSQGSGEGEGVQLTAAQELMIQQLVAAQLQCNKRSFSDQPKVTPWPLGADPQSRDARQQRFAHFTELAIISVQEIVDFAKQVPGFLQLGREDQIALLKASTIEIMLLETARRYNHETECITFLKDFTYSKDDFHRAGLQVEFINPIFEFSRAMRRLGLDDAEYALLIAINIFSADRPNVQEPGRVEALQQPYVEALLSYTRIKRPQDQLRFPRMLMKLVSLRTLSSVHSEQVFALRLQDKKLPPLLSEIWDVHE

[6] = cells
[7] = target: E3 ubiquitin-protein ligase UHRF1 (Homo sapiens, UniProt Q96T88); assay: Counterscreen for inhibitors of 5-meCpG-binding domain protein 2 (MBD2): TRFRET-based biochemical high throughput dose response assay to identify inhibitors of binding of ubiquitin-like with PHD and ring finger domains 1 (UHRF1) to methylated oligonucleotide.
Chain of E3 ubiquitin-protein ligase UHRF1 (Q96T88 whole entry, the tested form may be a part): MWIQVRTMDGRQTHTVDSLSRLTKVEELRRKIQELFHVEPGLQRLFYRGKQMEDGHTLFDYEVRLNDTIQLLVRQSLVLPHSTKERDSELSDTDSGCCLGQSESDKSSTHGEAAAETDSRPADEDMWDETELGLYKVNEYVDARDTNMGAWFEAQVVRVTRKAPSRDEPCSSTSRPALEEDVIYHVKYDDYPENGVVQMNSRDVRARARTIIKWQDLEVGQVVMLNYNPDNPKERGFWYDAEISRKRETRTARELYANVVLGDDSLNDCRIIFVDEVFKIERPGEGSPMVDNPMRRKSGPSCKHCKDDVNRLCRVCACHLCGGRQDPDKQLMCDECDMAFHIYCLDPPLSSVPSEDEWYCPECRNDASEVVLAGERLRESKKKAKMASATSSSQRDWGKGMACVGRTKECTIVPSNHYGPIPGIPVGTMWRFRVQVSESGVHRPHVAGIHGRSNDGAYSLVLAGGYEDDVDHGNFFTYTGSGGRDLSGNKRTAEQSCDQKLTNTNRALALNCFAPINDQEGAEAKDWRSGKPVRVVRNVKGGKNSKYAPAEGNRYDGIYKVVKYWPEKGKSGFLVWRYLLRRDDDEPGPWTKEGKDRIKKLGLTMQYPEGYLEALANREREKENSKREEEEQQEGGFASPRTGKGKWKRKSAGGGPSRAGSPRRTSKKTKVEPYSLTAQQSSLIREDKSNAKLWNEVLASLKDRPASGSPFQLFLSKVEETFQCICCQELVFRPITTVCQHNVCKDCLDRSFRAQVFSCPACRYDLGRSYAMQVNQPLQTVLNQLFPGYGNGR

[8] = target: Protein disulfide-isomerase (Homo sapiens, UniProt P07237); assay: inhibition of PDI-driven insulin aggregation – biochemical, turbidity, absorbance, cherry-picked samples, dose response (AID 602350); type: functional
Chain of Protein disulfide-isomerase (P07237 whole entry): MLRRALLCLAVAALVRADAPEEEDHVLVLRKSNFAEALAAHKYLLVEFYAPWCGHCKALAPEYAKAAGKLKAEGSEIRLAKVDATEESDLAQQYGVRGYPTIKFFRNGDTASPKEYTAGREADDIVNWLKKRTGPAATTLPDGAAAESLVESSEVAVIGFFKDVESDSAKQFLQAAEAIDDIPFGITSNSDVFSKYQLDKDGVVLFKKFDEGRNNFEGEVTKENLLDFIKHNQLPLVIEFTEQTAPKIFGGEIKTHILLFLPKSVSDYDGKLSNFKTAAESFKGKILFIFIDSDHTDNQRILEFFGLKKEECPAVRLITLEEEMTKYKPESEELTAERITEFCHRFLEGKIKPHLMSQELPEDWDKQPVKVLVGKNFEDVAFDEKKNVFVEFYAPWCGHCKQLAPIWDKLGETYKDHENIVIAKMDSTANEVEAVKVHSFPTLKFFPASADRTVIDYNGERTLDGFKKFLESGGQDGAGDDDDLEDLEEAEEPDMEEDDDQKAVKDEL

[9] = target: ELAV-like protein 1 (Homo sapiens, UniProt Q15717); assay: Identify HuR specific inhibitors.; type: functional
Chain of ELAV-like protein 1 (Q15717 whole entry): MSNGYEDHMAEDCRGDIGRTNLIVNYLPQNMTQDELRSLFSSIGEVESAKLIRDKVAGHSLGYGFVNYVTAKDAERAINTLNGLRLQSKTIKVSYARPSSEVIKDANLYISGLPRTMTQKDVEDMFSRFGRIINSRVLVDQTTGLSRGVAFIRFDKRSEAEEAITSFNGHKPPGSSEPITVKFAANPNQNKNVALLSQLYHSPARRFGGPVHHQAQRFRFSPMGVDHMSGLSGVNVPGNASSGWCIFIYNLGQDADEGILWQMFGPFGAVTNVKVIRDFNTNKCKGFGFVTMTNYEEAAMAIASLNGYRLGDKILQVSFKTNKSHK

[10] = target: DNA (cytosine-5)-methyltransferase 1 (Homo sapiens, UniProt P26358); assay: inhibition of DNA methylation by DNMT1 – biochemical, fluorescent molecular beacon, confirmation (AID 602386); type: functional
Chain of DNA (cytosine-5)-methyltransferase 1 (P26358 whole entry): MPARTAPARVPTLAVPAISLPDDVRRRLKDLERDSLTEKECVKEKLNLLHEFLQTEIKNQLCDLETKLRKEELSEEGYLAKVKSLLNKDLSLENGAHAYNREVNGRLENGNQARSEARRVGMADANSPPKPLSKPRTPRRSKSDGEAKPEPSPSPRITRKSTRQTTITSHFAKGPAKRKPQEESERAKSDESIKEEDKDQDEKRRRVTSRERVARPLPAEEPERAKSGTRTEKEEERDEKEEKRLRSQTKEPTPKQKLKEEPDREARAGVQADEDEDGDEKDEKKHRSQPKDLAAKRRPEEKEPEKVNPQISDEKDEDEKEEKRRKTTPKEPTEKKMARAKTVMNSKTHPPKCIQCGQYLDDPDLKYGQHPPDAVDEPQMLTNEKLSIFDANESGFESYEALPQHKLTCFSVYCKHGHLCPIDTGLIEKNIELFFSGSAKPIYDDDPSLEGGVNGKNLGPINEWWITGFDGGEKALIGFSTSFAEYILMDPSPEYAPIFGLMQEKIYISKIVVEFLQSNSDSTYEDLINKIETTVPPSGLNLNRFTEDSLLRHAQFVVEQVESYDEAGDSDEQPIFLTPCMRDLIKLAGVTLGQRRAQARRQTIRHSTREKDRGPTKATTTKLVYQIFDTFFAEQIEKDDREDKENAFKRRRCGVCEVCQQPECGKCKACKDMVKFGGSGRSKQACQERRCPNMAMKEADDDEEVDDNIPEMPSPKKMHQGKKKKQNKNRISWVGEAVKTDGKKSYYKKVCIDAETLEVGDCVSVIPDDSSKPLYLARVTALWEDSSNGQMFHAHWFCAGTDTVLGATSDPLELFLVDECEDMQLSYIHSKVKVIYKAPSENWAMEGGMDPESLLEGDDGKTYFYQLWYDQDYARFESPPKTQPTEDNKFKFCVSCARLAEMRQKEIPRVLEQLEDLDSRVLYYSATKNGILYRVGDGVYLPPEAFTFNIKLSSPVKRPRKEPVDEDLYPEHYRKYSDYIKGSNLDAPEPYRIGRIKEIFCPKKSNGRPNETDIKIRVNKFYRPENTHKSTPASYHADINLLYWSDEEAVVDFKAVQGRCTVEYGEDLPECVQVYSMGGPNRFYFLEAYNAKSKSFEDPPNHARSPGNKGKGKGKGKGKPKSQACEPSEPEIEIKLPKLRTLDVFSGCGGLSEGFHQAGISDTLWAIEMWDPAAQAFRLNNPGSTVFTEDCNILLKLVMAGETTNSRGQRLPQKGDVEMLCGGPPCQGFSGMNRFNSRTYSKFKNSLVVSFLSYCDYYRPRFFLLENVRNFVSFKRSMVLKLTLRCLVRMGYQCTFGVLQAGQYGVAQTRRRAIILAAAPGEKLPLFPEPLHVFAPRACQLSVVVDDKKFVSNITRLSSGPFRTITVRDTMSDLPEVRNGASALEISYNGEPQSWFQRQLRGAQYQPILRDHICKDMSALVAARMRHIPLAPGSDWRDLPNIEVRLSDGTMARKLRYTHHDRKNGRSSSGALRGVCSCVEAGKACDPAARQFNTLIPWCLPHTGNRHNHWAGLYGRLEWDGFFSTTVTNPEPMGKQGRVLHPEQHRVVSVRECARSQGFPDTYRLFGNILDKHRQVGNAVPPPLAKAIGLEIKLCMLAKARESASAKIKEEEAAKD

[11] = IC50 of insulin release inhibition, rat insulinoma INS-1E line, 5 mM glucose, cell-based (AID 1117331); type: functional
[12] = cells; type: functional, cell-based; conditions: INS-1E
[13] = target: T1, DNA repair protein RAD52 homolog (Homo sapiens, UniProt P43351); type: functional, biochemical
T1 sequence (P43351 whole entry): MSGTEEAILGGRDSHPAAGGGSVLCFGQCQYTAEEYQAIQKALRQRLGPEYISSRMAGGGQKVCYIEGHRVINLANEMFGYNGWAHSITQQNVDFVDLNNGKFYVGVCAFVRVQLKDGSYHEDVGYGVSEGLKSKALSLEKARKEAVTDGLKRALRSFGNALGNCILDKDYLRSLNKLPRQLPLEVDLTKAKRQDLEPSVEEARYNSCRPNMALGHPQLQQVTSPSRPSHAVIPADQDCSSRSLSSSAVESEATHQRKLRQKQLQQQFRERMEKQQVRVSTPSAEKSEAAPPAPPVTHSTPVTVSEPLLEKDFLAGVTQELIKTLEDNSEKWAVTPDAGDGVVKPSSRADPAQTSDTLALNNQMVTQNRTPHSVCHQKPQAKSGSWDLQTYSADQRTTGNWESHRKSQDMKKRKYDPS

[14] = target: Transthyretin (Homo sapiens, UniProt P02766); assay: Luminescence-based cell-based high throughput dose response assay to identify activators of Transthyretin (TTR) transcription.; type: functional
[15] = viability inhibitors of stage V gametocytes – luminescence, dose response (AID 1117278); type: functional, cell-based;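 further: gametocytes exposed to compound for 24 hours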
[16] = viability loss in human Jurkat cells – cell-based, luminescence, cytotoxicity control for P. falciparum gametocyte viability project, dose response (AID 1117277); type: functional;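 further: potency reflects loss of cellular ATP meaning fewer viable cells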
[17] = OVCAR8 cell viability loss – plate reader, dry powder samples, PAX8 project, dose response (AID 743197); type: functional, cell-based; conditions: OVCAR-8
[18] = A2780 cell killing – plate reader, dry powder samples, cytotoxicity control, dose response (AID 743046); type: functional, cell-based
[19] = OVCAR-3 cell viability loss – plate reader, dry powder samples, PAX8 inhibitor project, dose response (AID 743044); type: functional, cell-based
[20] = toxicity toward immortalized ovarian surface epithelium – cell-based, plate reader, dry powder samples, cytotoxicity control for PAX8 inhibitor project, dose response (AID 743045); type: functional
[21] = viability loss in MITF-independent A375 cells – cell-based, CellTiter-Glo luminescence, dry powder, set 2, counter-screen for MITF inhibitor project, dose response (AID 624489); type: functional; conditions: A-375;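 further: actives are compounds lowering A375 viability meaning general cytotoxicity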
[22] = cytotoxicity in MITF-independent A375 cells – cell-based, CellTiter-Glo luminescence, dry powder, set 4, counter-screen for MITF inhibitor project, dose response (AID 624364); type: functional; conditions: A-375;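 further: A375 melanoma cells are MITF independent so this is a counter screen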
[23] = target: G-protein coupled receptor 183 (Homo sapiens, UniProt P32249); assay: SAR confirmation of small molecule antagonists of the EBI2 receptor via a luminescent beta-arrestin assa.; type: functional
Chain of G-protein coupled receptor 183 (P32249 whole entry): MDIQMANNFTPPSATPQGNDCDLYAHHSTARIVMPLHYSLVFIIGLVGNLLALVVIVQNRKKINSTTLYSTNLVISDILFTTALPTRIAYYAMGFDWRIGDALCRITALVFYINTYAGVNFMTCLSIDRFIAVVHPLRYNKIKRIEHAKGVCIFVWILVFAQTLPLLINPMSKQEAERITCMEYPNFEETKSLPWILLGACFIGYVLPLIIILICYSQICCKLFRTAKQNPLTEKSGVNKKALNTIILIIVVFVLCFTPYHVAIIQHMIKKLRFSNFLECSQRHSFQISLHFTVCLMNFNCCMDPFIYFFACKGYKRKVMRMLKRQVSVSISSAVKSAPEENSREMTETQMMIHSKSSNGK

[24] = HIV-1 Vif–A3G interaction blockers – biochemical, TR-FRET, GST-Vif 1-94, biotin-A3G peptide, dose response retest, primary screen (AID 1117319); type: functional;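 further: TR-FRET signal of purified GST-Vif binding a biotinylated A3G peptide; inhibitors lower the FRET signal by blocking Vif and A3G binding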
[25] = target: Prothrombin (Homo sapiens, UniProt P00734); assay: Thrombin 1536 HTS Dose Response Confirmation. [Related pubchem assays: 1046 (Thrombin 1536 HTS; hits were confirmed in this assay)]; type: functional
[26] = target: T2, Rac GTPase-activating protein 1 (Homo sapiens, UniProt Q9H0H5); assay: blockers of MgcRacGAP-driven Rac1 GTP hydrolysis – biochemical, ADP Hunter fluorescence, primary and confirmatory, confirmation (AID 624330); type: functional
T2 sequence (Q9H0H5 whole entry): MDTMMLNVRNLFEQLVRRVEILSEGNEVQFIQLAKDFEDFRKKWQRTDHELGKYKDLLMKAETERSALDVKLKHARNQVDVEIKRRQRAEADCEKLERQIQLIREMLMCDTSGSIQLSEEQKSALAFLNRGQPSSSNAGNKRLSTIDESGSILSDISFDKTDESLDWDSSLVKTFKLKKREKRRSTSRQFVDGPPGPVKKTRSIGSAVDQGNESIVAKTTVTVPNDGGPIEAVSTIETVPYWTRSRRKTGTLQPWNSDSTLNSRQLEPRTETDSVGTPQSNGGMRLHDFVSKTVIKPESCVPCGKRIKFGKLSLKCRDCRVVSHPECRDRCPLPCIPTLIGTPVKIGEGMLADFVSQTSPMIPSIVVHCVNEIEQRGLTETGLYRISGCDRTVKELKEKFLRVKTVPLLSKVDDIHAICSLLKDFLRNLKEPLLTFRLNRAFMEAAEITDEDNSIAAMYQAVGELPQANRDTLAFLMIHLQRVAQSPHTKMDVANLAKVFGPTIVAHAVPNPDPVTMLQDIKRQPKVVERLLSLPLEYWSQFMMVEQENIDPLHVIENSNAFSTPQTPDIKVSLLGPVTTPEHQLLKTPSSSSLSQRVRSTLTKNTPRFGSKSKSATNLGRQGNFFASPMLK

[27] = target: T3, Fibrinogen beta chain (Homo sapiens, UniProt P02675); assay: Fluorescence polarization-based biochemical high throughput dose response assay to identify inhibitors that disrupt the binding of a cyclic peptide (Tn7) to the fibrin proteolytic product D-Dimer and fragment E complex [DD(E )].
T3 sequence (P02675 whole entry, the tested form may be a part): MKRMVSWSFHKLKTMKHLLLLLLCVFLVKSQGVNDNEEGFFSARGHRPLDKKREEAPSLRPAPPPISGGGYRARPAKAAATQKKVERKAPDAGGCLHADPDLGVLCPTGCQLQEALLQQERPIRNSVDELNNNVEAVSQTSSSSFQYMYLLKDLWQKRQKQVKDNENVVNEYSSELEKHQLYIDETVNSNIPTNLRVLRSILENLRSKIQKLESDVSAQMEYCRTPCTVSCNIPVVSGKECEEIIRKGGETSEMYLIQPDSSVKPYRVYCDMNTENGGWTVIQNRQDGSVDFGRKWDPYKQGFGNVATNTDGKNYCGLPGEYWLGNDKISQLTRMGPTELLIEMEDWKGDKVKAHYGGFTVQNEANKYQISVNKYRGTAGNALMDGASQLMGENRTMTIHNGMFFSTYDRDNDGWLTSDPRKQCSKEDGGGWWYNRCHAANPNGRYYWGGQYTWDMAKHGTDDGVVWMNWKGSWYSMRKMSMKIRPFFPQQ

[28] = target: T3, Fibrinogen beta chain; assay: Fluorescence polarization-based biochemical high throughput dose response assay to identify inhibitors that disrupt the binding of a cyclic peptide (Tn6) to the fibrin proteolytic product D-Dimer and fragment E complex [DD(E )].

Question: With CCOC(=O)c1c(NC(=O)CNCCN(C)C)sc(C)c1-c1ccccc1 as the molecule, how does the AC50 [1] read?
Answer: 7.22 µM (active)

Question: What about the AC50 [2] of the same molecule?
Answer: > 52 µM (inactive)

Question: With Cn1c(Cn2c(=O)sc3ccccc32)nnc1SCC(=O)NCc1ccc(F)cc1 as the molecule, how does the CC50 [3] read?
Answer: > 40 µM (active)

Question: Which AC50 [4] does the source give for CC(CNc1ccc(Cl)cc1)(CNc1ccc(Cl)cc1)[N+](=O)[O-] here?
Answer: > 52 µM (inactive)

Question: For O=C1C(/C=N/c2ccccc2)=C(O)c2ccccc21, which EC50 [5] is on record?
Answer: > 67.5 µM (inactive)

Question: What about the EC50 [6] of the same molecule?
Answer: > 67.5 µM (inactive)

Question: Which IC50 [7] does the source give for CC(=O)Nc1sc2c(c1-c1nc3ccccc3s1)CN(C(C)C)C2 here?
Answer: > 43.8 µM (inactive)

Question: For COC(=O)CC1OCC=C2CN3CCC45C6=CC(=O)C(=O)C([N+](=O)[O-])=C6NC4C1C2CC35 (stereo not drawn), which AC50 [8] is on record?
Answer: 8.03 µM (active)

Question: What about the IC50 [9] of the same molecule?
Answer: 69.6 µM (inactive)

Question: What about the IC50 [10] of the same molecule?
Answer: 6.06 µM (active)

Question: Which results are given for CCC(=O)c1ccc2c(c1)N(CCCN(C)C)c1ccccc1S2 [PROPIONYLPROMAZINE HYDROCHLORIDE]?
Answer: IC50 [11]: 10.7 µM (inactive); IC50 [12]: > 33.3 µM (inactive); AC50 [13]: 31.4 µM (active)

Question: Which EC50 [14] does the source give for Cc1c(NS(=O)(=O)c2ccc(NC3CCCC3)c([N+](=O)[O-])c2)c(=O)n(-c2ccccc2)n1C here?
Answer: > 167 µM (inactive)

Question: With Cc1ccc(NC(=O)Cn2cccc2)c(C)c1 as the molecule, how does the IC50 [15] read?
Answer: > 109 µM (inactive)

Question: And the IC50 [16]?
Answer: > 83.4 µM (inactive)

Question: Which AC50 [17] does the source give for O=C(Nc1ccccc1)N1CCCCN2[C@@H](CO)[C@@H](c3ccc(C#Cc4ccccc4)cc3)[C@@H]2C1 here?
Answer: 17.5 µM (active)

Question: What about the AC50 [18] of the same molecule?
Answer: 13.7 µM (active)

Question: And the AC50 [19]?
Answer: 7.13 µM (active)

Question: What about the AC50 [20] of the same molecule?
Answer: 19.3 µM (active)

Question: Which AC50 [21] does the source give for COc1ccc(C(=O)NC2=C(c3ccccc3)C(=O)c3ccccc3C2=O)cc1 here?
Answer: 20.9 µM (active)

Question: And the AC50 [22]?
Answer: 40.6 µM (active)

Question: Which IC50 [23] does the source give for O=C(/C=C/c1ccc(F)cc1)N1CCN(S(=O)(=O)c2cccc(F)c2)CC1 here?
Answer: 0.0196 µM (active)

Question: With COc1cc(OC)cc(C(=O)NNC(=O)c2ccccc2Br)c1 as the molecule, how does the IC50 [24] read?
Answer: > 100 µM (active)

Question: And the IC50 [25]?
Answer: > 50 µM (not active)

Question: Which IC50 [26] does the source give for CCC/C(=N\c1ccc(N)cc1)C1=C(O)C(C(=O)OC)C(C)(C)CC1=O (stereo not drawn) here?
Answer: 9.5 µM (active)

Question: What about the IC50 [27] of the same molecule?
Answer: > 83.3 µM (inactive)

Question: What about the IC50 [28] of the same molecule?
Answer: > 83.3 µM (inactive)
